Square brackets hold non-standard residues; d marks the D form. Peptide text beside a SMILES is read from it. Dolaproine = CO[C@@H]([C@@H]1CCCN1)[C@@H](C)C(=O)O; Phe(2,4-Cl2) = N[C@@H](Cc1ccc(Cl)cc1Cl)C(=O)O; Dil = CC[C@H](C)[C@H](NC)[C@@H](CC(=O)O)OC; Phe(3-Cl) = N[C@@H](Cc1cccc(Cl)c1)C(=O)O; Phe(3-F) = N[C@@H](Cc1cccc(F)c1)C(=O)O; Phe(4-Me) = Cc1ccc(C[C@H](N)C(=O)O)cc1; Phe(2-F) = N[C@@H](Cc1ccccc1F)C(=O)O; Phe(2-Me) = Cc1ccccc1C[C@H](N)C(=O)O; 2Thi = N[C@@H](Cc1cccs1)C(=O)O; NMeV = CN[C@H](C(=O)O)C(C)C
Legend:
HepG2 tumor cells = test: In vitro tumor cell proliferation inhibition test (CCK-8), HepG2; type: cell-based; details: Homo sapiens, HepG2, 76 hours incubation
Protocol: (§1) The objective of this experiment is to test the in vitro inhibition effect of the formula (D) according to the present invention on the proliferation of HepG2 tumor cells (human hepatocellular carcinoma cells, Chinese Academy of Sciences cell bank, No. #TCHu 72) and A549 tumor cells (human lung adenocarcinoma, Chinese Academy of Sciences cell bank, No. #TCHu150). The cells were treated with different concentrations of the compound in vitro. After 76 hours incubation, the cell proliferation was detected by CCK-8 reagent (Cell Counting Kit-8, Dojindo, No. CK04), and the activity of the compound in vitro was evaluated according to the IC50 value.
(§2) The following is an example of a method for in vitro proliferation inhibition test of HepG2 cells for the purpose of exemplifying the test of the compounds according to the present invention for the proliferation inhibitory activity on tumor cells in vitro. This method is also applicable to, but not limited to, the in vitro proliferation inhibition tests on other tumor cells.
HepG2 cells in logarithmic growth phase were washed with PBS (phosphate buffer, ThermoFisher) once, and added with 2-3 ml trypsin (0.25% trypsin-EDTA (1×), Gibico, Life Technologies) to digest for 2-3 min. Then, 10-15 ml of cell culture medium (DMEM/F12 medium, Invitrogen; 10% (v/v)) was added after the cells were completely digested. The digested HepG2 cells were eluted, and centrifuged at 1000 rpm for 3 min. The supernatant was discarded, and then 10-20 ml of cell culture medium were added to resuspend the cells to prepare a single cell suspension.
The HepG2 single cell suspension was mixed and the cell density was adjusted to 6×10^4 cells/ml with cell culture medium. The density-adjusted cell suspension was mixed uniformly and added to a 96-well cell culture plate at 100 μl/well. The plates were incubated in a 5% CO2 incubator at 37° C. for 18-20 hours.
(§3) The compound was dissolved with DMSO (dimethylsulfoxide, Shanghai Titan Technology Co., Ltd.) to prepare a storage solution having an initial concentration of 10 mM.
(§4) 10 μl of 10 mM compound was added to the wells of the first column of a U-shaped bottom 96-well plate (sample plate 1), and 90 μl of DMSO was added to each compound sample well of the first column, i.e., the stock solution was diluted 10 times as the starting point. Then, 3-fold gradient dilutions were performed, with each compound concentration […]. The diluent was DMSO solution. 60 μl of 100% DMSO was added to 12th column and 20 μl of 1 mM positive drug control was added to 11th column.
(§5) In a new U-shaped bottom 96-well plate (sample plate 2), each sample from the sample plate 1 was diluted 20 times with the complete medium. Then, in another new U-shaped bottom 96-well plate (sample plate 3), each well sample from the sample plate 2 was subjected to a final 10-fold dilution.
(§6) After the cell pre-culture was completed, the 96-well cell culture plate was removed and the supernatant was discarded. Each sample dilution in the 96-well sample plate 3 was successively added to a 96-well cell culture plate at 100 μl/well. Each compound sample was tested in duplicate at each concentration. […] After completion of the loading operation, the 96-well cell culture plate was incubated at 37° C. for about 76 hours in a 5% CO2 incubator.
(§7) The 96-well cell culture plate was taken and CCK-8 was added to each well at […]. The cell culture plate was gently pat and mixed for more than 10 times and incubated at 37° C. for 2 hours in a 5% CO2 incubator.
(§8) The 96-well cell culture plate was taken and placed in a microplate reader (PerkinElmer, VICTOR 3) and the absorbance at 450 nm was measured using the microplate reader.
(§9) Data was analyzed with Microsoft Excel and Graphpad Prism 5.

A549 tumor cells = test: In vitro tumor cell proliferation inhibition test (CCK-8), A549; type: cell-based; details: Homo sapiens, A549, 76 hours incubation
Protocol: as §1, §2, §3, §4, §5, §6, §7, §8
In accordance with the above procedure, the inhibition activity of the compound according to the present invention on the proliferation of A549 tumor cells in vitro was tested. The cell culture medium was also DMEM/F12.
as §9

[1] = system: NCI-N87 cells (HER2 overexpressing human gastric cancer cells); test: Tumor inhibition rate test of NCI-N87 transplanted tumor in nude mice; type: in vivo; details: 60 mg/kg (first dose doubling), IV
Description: To evaluate and compare the effect of antibody-cytotoxin conjugates according to the present invention on transplanted tumors of NCI-N87 cells (HER2 overexpressing human gastric cancer cells, ATCC, CRL-5822) in nude mice. […] Preparation method: all prepared with physiological saline. […] Feeding environment: SPF level. […] T/C (%)=(T−T0)/(C−C0)×100%, wherein T and C represent the tumor volume at the end of the experiment; T0 and C0 represent the tumor volume at the beginning of the experiment. […] The number of mice at the beginning of the experiment was as follows: Control group n=12, Treatment group n=6.

| Compound | IC50 (HepG2 tumor cells) | IC50 (A549 tumor cells) | Mean tumor volume (mm^3) D0 ([1]; D0, 7, D0 = time of first administration) | % T/C D21 ([1]; D0, 7, D21) | % tumor inhibition rate D21 ([1]; D0, 7, D21) | Mean tumor volume (mm^3) D21 ([1]; D0, 7, D21) |
| --- | --- | --- | --- | --- | --- | --- |
| CC[C@H](C)[C@@H]([C@@H](CC(=O)N1CCC[C@H]1[C@H](OC)[C@@H](C)C(=O)N[C@@H](Cc1ccccc1F)C(=O)O)OC)N(C)C(=O)[C@@H](NC(=O)[C@@H](NC)C(C)C)C(C)C [Compound 25, (S)-2-((2R,3R)-3-((S)-1-((3R,4S,5S)-4-((S)—N,3-dimethyl-2-((S)-3-methyl-2-(methylamino)butanamido)butanamido)-3-methoxy-5-methylheptanoyl)pyrrolidin-2-yl)-3-methoxy-2-methylpropanamido)-3-(2-fluorophenyl)propanoic acid] (H-[NMeV]V[Dil][Dolaproine][Phe(2-F)]-OH) | 175 nM | 200 nM |  |  |  |  |
| CC[C@H](C)[C@@H]([C@@H](CC(=O)N1CCC[C@H]1[C@H](OC)[C@@H](C)C(=O)N[C@@H](Cc1ccc(C)cc1)C(=O)O)OC)N(C)C(=O)[C@@H](NC(=O)[C@@H](NC)C(C)C)C(C)C [Compound 29, (S)-2-((2R,3R)-3-((S)-1-((3R,4S,5S)-4-((S)—N,3-dimethyl-2-((S)-3-methyl-2-(methylamino)butanamido)butanamido)-3-methoxy-5-methylheptanoyl)pyrrolidin-2-yl)-3-methoxy-2-methylpropanamido)-3-(p-tolyl)propanoic acid] (H-[NMeV]V[Dil][Dolaproine][Phe(4-Me)]-OH) | 58.6 nM | 1.8 nM |  |  |  |  |
| CC[C@H](C)[C@@H]([C@@H](CC(=O)N1CCC[C@H]1[C@H](OC)[C@@H](C)C(=O)N[C@@H](Cc1cccc(Cl)c1)C(=O)O)OC)N(C)C(=O)[C@@H](NC(=O)[C@@H](NC)C(C)C)C(C)C [Compound 31, (S)-3-(3-chlorophenyl)-2-((2R,3R)-3-((S)-1-((3R,4S,5S)-4-((S)—N,3-dimethyl-2-((S)-3-methyl-2-(methylamino)butanamido)butanamido)-3-methoxy-5-methylheptanoyl)pyrrolidin-2-yl)-3-methoxy-2-methylpropanamido)propanoic acid] (H-[NMeV]V[Dil][Dolaproine][Phe(3-Cl)]-OH) | 100 nM | 130 nM |  |  |  |  |
| CC[C@H](C)[C@@H]([C@@H](CC(=O)N1CCC[C@H]1[C@H](OC)[C@@H](C)C(=O)N[C@@H](Cc1cccc(F)c1)C(=O)O)OC)N(C)C(=O)[C@@H](NC(=O)[C@@H](NC)C(C)C)C(C)C [Compound 32, (S)-2-((2R,3R)-3-((S)-1-((3R,4S,5S)-4-((S)—N,3-dimethyl-2-((S)-3-methyl-2-(methylamino)butanamido)butanamido)-3-methoxy-5-methylheptanoyl)pyrrolidin-2-yl)-3-methoxy-2-methylpropanamido)-3-(3-fluorophenyl)propanoic acid] (H-[NMeV]V[Dil][Dolaproine][Phe(3-F)]-OH) | 17.4 nM | 13.5 nM |  |  |  |  |
| CC[C@H](C)[C@@H]([C@@H](CC(=O)N1CCC[C@H]1[C@H](OC)[C@@H](C)C(=O)N[C@@H](Cc1ccc(Cl)cc1Cl)C(=O)O)OC)N(C)C(=O)[C@@H](NC(=O)[C@@H](NC)C(C)C)C(C)C [Compound 33, (S)-3-(2,4-dichlorophenyl)-2-((2R,3R)-3-((S)-1-((3R,4S,5S)-4-((S)-N,3-dimethyl-2-((S)-3-methyl-2-(methylamino)butanamido)butanamido)-3-methoxy-5-methylheptanoyl)pyrrolidin-2-yl)-3-methoxy-2-methylpropanamido)propanoic acid] (H-[NMeV]V[Dil][Dolaproine][Phe(2,4-Cl2)]-OH) | 4.66 nM | 5 nM |  |  |  |  |
| CC[C@H](C)[C@@H]([C@@H](CC(=O)N1CCC[C@H]1[C@H](OC)[C@@H](C)C(=O)N[C@@H](Cc1ccccc1C)C(=O)O)OC)N(C)C(=O)[C@@H](NC(=O)[C@@H](NC)C(C)C)C(C)C [Compound 34, (S)-2-((2R,3R)-3-((S)-1-((3R,4S,5S)-4-((S)—N,3-dimethyl-2-((S)-3-methyl-2-(methylamino)butanamido)butanamido)-3-methoxy-5-methylheptanoyl)pyrrolidin-2-yl)-3-methoxy-2-methylpropanamido)-3-(o-tolyl)propanoic acid] (H-[NMeV]V[Dil][Dolaproine][Phe(2-Me)]-OH) | 18.3 nM | 32.3 nM |  |  |  |  |
| CC[C@H](C)[C@@H]([C@@H](CC(=O)N1CCC[C@H]1[C@H](OC)[C@@H](C)C(=O)N[C@@H](Cc1cccs1)C(=O)O)OC)N(C)C(=O)[C@@H](NC(=O)[C@@H](NC)C(C)C)C(C)C [Compound 35, (S)-2-((2R,3R)-3-((S)-1-((3R,4S,5S)-4-((S)—N,3-dimethyl-2-((S)-3-methyl-2-(methylamino)butanamido)butanamido)-3-methoxy-5-methylheptanoyl)pyrrolidin-2-yl)-3-methoxy-2-methylpropanamido)-3-(thiophen-2-yl)propanoic acid] (H-[NMeV]V[Dil][Dolaproine][2Thi]-OH) | 30.6 nM | 18 nM |  |  |  |  |
| Pertuzumab |  |  | 115.5 mm^3 | 42% | 58% | 380.1 mm^3 |

Source: US20180177890A1, “LIGAND-CYTOTOXIC DRUG CONJUGATE, PREPARATION METHOD THEREOF, AND USE THEREOF” (priority 2015, published 2018)
